Read-outs that look alike come from different tables or passages of the source.
How the values were obtained:
Format in all cases: in vivo
[1] = tested on: Eiysiphe graminis f. sp. tritici; assay: Test A: wheat powdery mildew, preventive spray on wheat seedlings; settings: for Test A disease control rating (100 = 100% disease control, 0 = no disease control): wheat seedlings sprayed to run-off, inoculated the following day, rating relative to controls, unmarked compounds (standard test rate); for Test A disease control rating: wheat powdery mildew
How it was run: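 Preventive test: seedlings inoculated with powdery mildew spores one day after run-off spraying of a suspension. Ratings after 7 days in a 20° C growth chamber express percent disease control versus controls.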

Pyricularia oryzae = settings: for Test C disease control rating (100 = 100% disease control, 0 = no disease control): rice seedlings sprayed to run-off, inoculated the following day, rating relative to controls, unmarked compounds (standard test rate); for Test C disease control rating: rice blast
Phytophthora infestans = settings: for Test D disease control rating (100 = 100% disease control, 0 = no disease control): tomato seedlings sprayed to run-off, inoculated the following day, rating relative to controls, unmarked compounds (standard test rate); for Test D disease control rating: tomato late blight
Botrytis cinerea = assay: Test E: gray mold, preventive spray on cucumber seedlings; settings: for Test E disease control rating (100 = 100% disease control, 0 = no disease control): cucumber seedlings sprayed to run-off, inoculated the following day, rating relative to controls, unmarked compounds (standard test rate); for Test E disease control rating: gray mold on cucumber
How it was run: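 Preventive spray on cucumber seedlings used a suspension (3% acetone, 250 ppm Trem 014), applied to run-off one day before inoculation with Botrytis cinerea spores. Plants were held 48 h at 20° C in saturated air, then 5 days at 20° C. Percent disease control was scored relative to untreated plants.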

Puccinia recondita = assay: Test B: wheat leaf rust, preventive spray on wheat seedlings; settings: for Test B disease control rating (100 = 100% disease control, 0 = no disease control): wheat seedlings sprayed to run-off, inoculated the following day, rating relative to controls, unmarked compounds (standard test rate); for Test B disease control rating: wheat leaf rust
How it was run: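 Preventive test: P. recondita spores were applied one day after a run-off spray of compound suspension on wheat seedlings. Plants had 24 h at 20 °C in saturated air plus 6 days in a 20 °C growth chamber. Scoring is % disease control (100 = full) relative to controls.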

[2] = 100 = 100% disease control, 0 = no control relative to controls, unmarked entries (standard test concentration)
[3] = 100 = 100% disease control, 0 = no control, unmarked entries (standard test concentration)

Row | Compound | Test A disease control rating [1, 2] [%] | Test C disease control rating (Pyricularia oryzae; [3]) [%] | Test D disease control rating (Phytophthora infestans; [3]) [%] | Test E disease control rating (Botrytis cinerea; [3]) [%] | Test B disease control rating (Puccinia recondita; [3]) [%] | further results
1 | CCCc1cccc(C#N)c1OCC(C)NC(=O)C1(CC)C(C)C1(Cl)Cl (mixture of isomers) [compound 255] | – | – | – | – | – | Test A disease control rating (100 = 100% disease control, 0 = no disease control) [1]: 28%; Test C disease control rating (100 = 100% disease control, 0 = no disease control) (Pyricularia oryzae): 74%; Test D disease control rating (100 = 100% disease control, 0 = no disease control) (Phytophthora infestans): 0%; Test E disease control rating (100 = 100% disease control, 0 = no disease control) (Botrytis cinerea): 0%; Test B disease control rating (100 = 100% disease control, 0 = no disease control) (Puccinia recondita): 0%
2 | CC(COc1cccc(F)c1)NC(=O)C(C#N)C(C)(C)C (single isomer, unassigned) [3b] | 0 | 86 | 32 | 0 | 0 | –
3 | CC(COc1cccc(F)c1)NC(=O)C(C#N)C(C)(C)C (mixture of isomers) [3a] | 85 | 94 | 0 | 55 | 0 | –
4 | CC(COn1c(C#N)cc(Cl)c1Cl)NC(=O)C(C#N)C(C)(C)C (mixture of isomers) [compound 51] | 71 | 53 | 68 | 0 | 0 | –
5 | C[C@H](COc1cc(Cl)cc(Cl)c1)NC(=O)C(C#N)C(C)(C)C (single isomer, unassigned) [35b] | 37 | 91 | 0 | 0 | 0 | –
6 | C#CC(C)(C=C)C(C#N)C(=O)NC(C)COc1cc(Cl)ccc1F (mixture of isomers) [compound 302] | – | – | – | – | – | Test A disease control rating (100 = 100% disease control, 0 = no disease control) [1]: 0%; Test C disease control rating (100 = 100% disease control, 0 = no disease control) (Pyricularia oryzae): 99%; Test D disease control rating (100 = 100% disease control, 0 = no disease control) (Phytophthora infestans): 24%; Test E disease control rating (100 = 100% disease control, 0 = no disease control) (Botrytis cinerea): 0%; Test B disease control rating (100 = 100% disease control, 0 = no disease control) (Puccinia recondita): 0%
7 | C[C@H](COc1cccc(F)c1F)NC(=O)C(C#N)C(C)(C)C (single isomer, unassigned) [26b] | 38 | 100 | 81 | 0 | 68 | –
8 | CCC1(C(=O)NCC=Cc2cc(Cl)ccc2Cl)C(C)C1(Cl)Cl (centres unmarked) [compound 163] | – | – | – | – | – | Test A disease control rating ([1]; tested at 40 ppm): 0%; Test C disease control rating (Pyricularia oryzae; tested at 40 ppm): 52%; Test D disease control rating (Phytophthora infestans; tested at 40 ppm): 42%; Test E disease control rating (Botrytis cinerea; tested at 40 ppm): 0%; Test B disease control rating (Puccinia recondita; tested at 40 ppm): 0%
9 | CCC1(C(=O)NC(C)COc2ccccc2Br)C(C)C1(Cl)Cl (mixture of isomers) [84a] | – | – | – | – | – | Test A disease control rating ([1]; tested at 40 ppm): 29%; Test C disease control rating (Pyricularia oryzae; tested at 40 ppm): 0%; Test D disease control rating (Phytophthora infestans; tested at 40 ppm): 20%; Test E disease control rating (Botrytis cinerea; tested at 40 ppm): 0%; Test B disease control rating (Puccinia recondita; tested at 40 ppm): 0%
10 | CC(COc1cc(F)c(F)cc1C#N)NC(=O)C(C#N)C(C)C(C)(C)C (mixture of isomers) [compound 278] | – | – | – | – | – | Test A disease control rating (100 = 100% disease control, 0 = no disease control) [1]: 56%; Test C disease control rating (100 = 100% disease control, 0 = no disease control) (Pyricularia oryzae): 32%; Test D disease control rating (100 = 100% disease control, 0 = no disease control) (Phytophthora infestans): 0%; Test E disease control rating (100 = 100% disease control, 0 = no disease control) (Botrytis cinerea): 94%; Test B disease control rating (100 = 100% disease control, 0 = no disease control) (Puccinia recondita): 67%
11 | C[C@H](COc1cccc(Cl)c1)NC(=O)C(C#N)C(C)(C)C (single isomer, unassigned) [6d] | 77 | 97 | 0 | 0 | 28 | –
12 | C[C@H](COc1ccc(F)c(F)c1)NC(=O)C(C#N)C(C)(C)C (single isomer, unassigned) [30a] | 0 | 100 | 0 | 0 | 0 | –
13 | CC(COc1ccccc1)NC(=O)C(C#N)C(C)C(C)(C)C (mixture of isomers) [compound 56] | – | – | – | – | – | Test A disease control rating ([1]; tested at 40 ppm): 74%; Test C disease control rating (Pyricularia oryzae; tested at 40 ppm): 85%; Test D disease control rating (Phytophthora infestans; tested at 40 ppm): 0%; Test E disease control rating (Botrytis cinerea; tested at 40 ppm): 0%; Test B disease control rating (Puccinia recondita; tested at 40 ppm): 0%

Source: patent US6642392B1 (priority 1997, dated 2003)
